In brackets after ≈: the same amount, converted by molar mass.
Key:
Assay in all cases: in vitro antibacterial evaluation, MIC by broth dilution
Type in all cases: cell-based
[1] = system: Enterococcus sp.; settings: broth dilution, 18 hours at 35° C.; for MIC Enterococcus faecalis (ATCC 29212): strain ATCC 29212; for MIC Enterococcus faecalis (GC 2242): strain GC 2242; for MIC Enterococcus faecium (GC 2243): strain GC 2243; for MIC Enterococcus faecalis (GC 2691): strain GC 2691; for MIC Enterococcus faecalis (GC 3059): strain GC 3059; for MIC Enterococcus faecalis (GC 4552): strain GC 4552; for MIC Enterococcus faecalis (GC 4553): strain GC 4553; for MIC Enterococcus faecalis (GC 4554): strain GC 4554; for MIC Enterococcus faecium (GC 4556): strain GC 4556; for MIC Enterococcus faecium (GC 4557): strain GC 4557; for MIC Enterococcus avium (GC 4558): strain GC 4558; for MIC Enterococcus faecalis (GC 6189): strain GC 6189
Procedure: (§1) Methods for in vitro Antibacterial Evaluation (Table 1)
(§2) The minimum inhibitory concentration (MIC), the lowest concentration of the antibiotic which inhibits growth of the test organism, is determined by the broth dilution method using Muller-Hinton II […] (Baltimore Biological Laboratories) following the recommendations of the National Committee for Clinical Laboratory Standards [Methods for dilution antimicrobial susceptibility tests for bacteria that grow aerobically, approved standard M7-A2, National Committee for Clinical Laboratory Standards, Villanova, Pa.].
(§3) An inoculum level of 5×10^5 CFU/mL, and a range of antibiotic concentrations (64-0.06 μg/mL) is used. […] The test organisms include a spectrum of Gram-positive bacteria comprised of Staphylococcus sp., Streptococcus sp. and Enterococcus sp. These organisms include recent clinical isolates that are resistant to methicillin, penicillin and/or vancomycin.

[2] = system: Staphylococcus sp.; settings: broth dilution, 18 hours at 35° C.; for MIC Staphylococcus aureus (ATCC 29213): strain ATCC 29213; for MIC Staphylococcus aureus (GC 1131): strain GC 1131; for MIC Staphylococcus aureus (GC 3051): strain GC 3051; for MIC Staphylococcus aureus (GC 3053): strain GC 3053; for MIC Staphylococcus aureus (GC 4541): strain GC 4541; for MIC Staphylococcus aureus (GC 4542): strain GC 4542; for MIC Staphylococcus aureus-SMITH (GC 4543): strain GC 4543; for MIC Staphylococcus aureus (GC 4544): strain GC 4544; for MIC Staphylococcus aureus (GC 4545): strain GC 4545; for MIC Staphylococcus haemolyticus (GC 4546): strain GC 4546; for MIC Coagulase Negative Staphylococcus (GC 4547): strain GC 4547; for MIC Coagulase Negative Staphylococcus (GC 4548): strain GC 4548; for MIC Coagulase Negative Staphylococcus (GC 4549): strain GC 4549; for MIC Coagulase Negative Staphylococcus (GC 4551): strain GC 4551; for MIC Coagulase Negative Staphylococcus (GC 6257): strain GC 6257
Procedure: as §1, §2, §3

[3] = system: Streptococcus sp.; settings: broth dilution, 18 hours at 35° C.; for MIC Streptococcus pneumoniae (ATCC 6301): strain ATCC 6301; for MIC Streptococcus pneumoniae (GC 1894): strain GC 1894; for MIC Streptococcus pyogenes (GC 4563): strain GC 4563; for MIC Streptococcus agalactiae (GC 4564): strain GC 4564; for MIC Streptococcus pneumoniae (GC 4565): strain GC 4565
Procedure: as §1, §2, §3

[4] = system: Escherichia coli; settings: broth dilution, 18 hours at 35° C.; for MIC Escherichia coli (ATCC 25922): strain ATCC 25922; for MIC Escherichia coli (GC 4559): strain GC 4559; for MIC Escherichia coli (GC 4560): strain GC 4560
Procedure, shortened: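 MIC is the lowest antibiotic concentration (tested 64-0.06 μg/mL) preventing growth of a 5×10^5 CFU/mL inoculum. Determined by broth dilution in Mueller-Hinton II medium following NCCLS standard M7-A2.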

Row | SMILES | MIC Enterococcus faecalis (ATCC 29212) [1] [µg/mL] | MIC Enterococcus faecalis (GC 2242) [1] [µg/mL] | MIC Enterococcus faecium (GC 2243) [1] [µg/mL] | MIC Enterococcus faecalis (GC 2691) [1] [µg/mL] | MIC Enterococcus faecalis (GC 3059) [1] [µg/mL] | MIC Enterococcus faecalis (GC 4552) [1] [µg/mL] | MIC Enterococcus faecalis (GC 4553) [1] [µg/mL] | MIC Enterococcus faecalis (GC 4554) [1] [µg/mL] | MIC Enterococcus faecium (GC 4556) [1] [µg/mL] | MIC Enterococcus faecium (GC 4557) [1] [µg/mL] | MIC Enterococcus avium (GC 4558) [1] [µg/mL] | MIC Enterococcus faecalis (GC 6189) [1] [µg/mL] | MIC Staphylococcus aureus (ATCC 29213) [2] [µg/mL] | MIC Staphylococcus aureus (GC 1131) [2] [µg/mL] | MIC Staphylococcus aureus (GC 3051) [2] [µg/mL] | MIC Staphylococcus aureus (GC 3053) [2] [µg/mL] | MIC Staphylococcus aureus (GC 4541) [2] [µg/mL] | MIC Staphylococcus aureus (GC 4542) [2] [µg/mL] | MIC Staphylococcus aureus-SMITH (GC 4543) [2] [µg/mL] | MIC Staphylococcus aureus (GC 4544) [2] [µg/mL] | also measured
1 | CC(c1ccccc1)C1NC(=O)CNC(=O)C(CO)NC(=O)C(C(O)C2CNC(=N)N2C2OC(CO)C(O)C(O)C2O)NC(=O)C(C(O)C2CNC(=N)N2)NC(=O)C(Cc2ccc3oc(-c4ccc(C(C)(C)C)cc4)nc3c2)NC1=O (stereo not drawn) [Example 32, Cyclo[3-[2-(4-tert-butylphenyl)-1,3-benzoxazol-5-yl]alanyl-3-(2-iminoimidazolidin-4-yl)seryl-3-(3-hexopyranosyl-2-iminoimidazolidin-4-yl)serylserylglycyl-β-methylphenylalanyl]] | 8 (≈ 7.09 µM) | 4 (≈ 3.55 µM) | 4 (≈ 3.55 µM) | 8 (≈ 7.09 µM) | 8 (≈ 7.09 µM) | 8 (≈ 7.09 µM) | 8 (≈ 7.09 µM) | 4 (≈ 3.55 µM) | 8 (≈ 7.09 µM) | 2 (≈ 1.77 µM) | 4 (≈ 3.55 µM) | 4 (≈ 3.55 µM) | 4 (≈ 3.55 µM) | 2 (≈ 1.77 µM) | 2 (≈ 1.77 µM) | 4 (≈ 3.55 µM) | 2 (≈ 1.77 µM) | 2 (≈ 1.77 µM) | 2 (≈ 1.77 µM) | 2 (≈ 1.77 µM) | MIC Staphylococcus aureus (GC 4545) [2]: 2 µg/mL (≈ 1.77 µM); MIC Staphylococcus haemolyticus (GC 4546) [2]: 2 µg/mL (≈ 1.77 µM); MIC Coagulase Negative Staphylococcus (GC 4547) [2]: 2 µg/mL (≈ 1.77 µM); MIC Coagulase Negative Staphylococcus (GC 4548) [2]: 1 µg/mL (≈ 0.886 µM); MIC Coagulase Negative Staphylococcus (GC 4549) [2]: 2 µg/mL (≈ 1.77 µM); MIC Coagulase Negative Staphylococcus (GC 4551) [2]: 4 µg/mL (≈ 3.55 µM); MIC Coagulase Negative Staphylococcus (GC 6257) [2]: 2 µg/mL (≈ 1.77 µM); MIC Streptococcus pneumoniae (ATCC 6301) [3]: 16 µg/mL (≈ 14.2 µM); MIC Streptococcus pneumoniae (GC 1894) [3]: 16 µg/mL (≈ 14.2 µM); MIC Streptococcus pyogenes (GC 4563) [3]: 8 µg/mL (≈ 7.09 µM); MIC Streptococcus agalactiae (GC 4564) [3]: 16 µg/mL (≈ 14.2 µM); MIC Streptococcus pneumoniae (GC 4565) [3]: 16 µg/mL (≈ 14.2 µM); MIC Escherichia coli (ATCC 25922) [4]: 16 µg/mL (≈ 14.2 µM); MIC Escherichia coli (GC 4559) [4]: 16 µg/mL (≈ 14.2 µM); MIC Escherichia coli (GC 4560) [4]: 4 µg/mL (≈ 3.55 µM)
2 | COc1ccc(Oc2cccc(-c3nc4cc(CC5NC(=O)C(C(C)c6ccccc6)NC(=O)CNC(=O)C(CO)NC(=O)C(C(O)C6CNC(=N)N6C6OC(CO)C(O)C(O)C6O)NC(=O)C(C(O)C6CNC(=N)N6)NC5=O)ccc4o3)c2)cc1 (stereo not drawn) [Example 35, Cyclo[3-[2-[3-(4-methoxyphenoxy)phenyl]-1,3-benzoxazol-5-yl]alanyl-3-(2-iminoimidazolidin-4-yl)seryl-3-(3-hexopyranosyl-2-iminoimidazolidin-4-yl)serylserylglycyl-β-methylphenyl-alanyl]] | 16 (≈ 13.4 µM) | 16 (≈ 13.4 µM) | 8 (≈ 6.7 µM) | 16 (≈ 13.4 µM) | 32 (≈ 26.8 µM) | 32 (≈ 26.8 µM) | 8 (≈ 6.7 µM) | 32 (≈ 26.8 µM) | 32 (≈ 26.8 µM) | 4 (≈ 3.35 µM) | 8 (≈ 6.7 µM) | 16 (≈ 13.4 µM) | 8 (≈ 6.7 µM) | 8 (≈ 6.7 µM) | 8 (≈ 6.7 µM) | 8 (≈ 6.7 µM) | 8 (≈ 6.7 µM) | 8 (≈ 6.7 µM) | 8 (≈ 6.7 µM) | 8 (≈ 6.7 µM) | MIC Staphylococcus aureus (GC 4545) [2]: 8 µg/mL (≈ 6.7 µM); MIC Staphylococcus haemolyticus (GC 4546) [2]: 8 µg/mL (≈ 6.7 µM); MIC Coagulase Negative Staphylococcus (GC 4547) [2]: 8 µg/mL (≈ 6.7 µM); MIC Coagulase Negative Staphylococcus (GC 4548) [2]: 8 µg/mL (≈ 6.7 µM); MIC Coagulase Negative Staphylococcus (GC 4549) [2]: 8 µg/mL (≈ 6.7 µM); MIC Coagulase Negative Staphylococcus (GC 4551) [2]: 8 µg/mL (≈ 6.7 µM); MIC Coagulase Negative Staphylococcus (GC 6257) [2]: 2 µg/mL (≈ 1.67 µM); MIC Streptococcus pneumoniae (ATCC 6301) [3]: 8 µg/mL (≈ 6.7 µM); MIC Streptococcus pneumoniae (GC 1894) [3]: 8 µg/mL (≈ 6.7 µM); MIC Streptococcus pyogenes (GC 4563) [3]: 2 µg/mL (≈ 1.67 µM); MIC Streptococcus agalactiae (GC 4564) [3]: 8 µg/mL (≈ 6.7 µM); MIC Streptococcus pneumoniae (GC 4565) [3]: 16 µg/mL (≈ 13.4 µM); MIC Escherichia coli (ATCC 25922) [4]: >128 µg/mL; MIC Escherichia coli (GC 4559) [4]: >128 µg/mL; MIC Escherichia coli (GC 4560) [4]: 16 µg/mL (≈ 13.4 µM)

— patent US6914045B2, “Glycopeptide antibiotics” (Wyeth Holdings Corporation, priority 2001, dated 2005)
